{"source": "ChEMBL document CHEMBL4680069", "about": "“Itaconate is a covalent inhibitor of the Mycobacterium tuberculosis isocitrate lyase” (RSC Med Chem, 2021)", "key": {"[1]": {"test_system": "Mycobacterium tuberculosis", "assay": "Binding affinity to N-terminal polyhis-tagged Mycobacterium tuberculosis ICL1 C191S mutant expressed in Escherichia coli BL21 (DE3) assessed as compound-protein covalent adduct formation by measuring molecular mass at 1 mM after 12 hrs in presence of MgCl2 by LC-MS analysis"}, "[2]": {"assay": "Binding affinity to N-terminal polyhis-tagged Mycobacterium tuberculosis ICL1 C191S mutant expressed in Escherichia coli BL21 (DE3) in presence of MgCl2 by NMR binding analysis"}}, "note": "Calls of active or inactive are those of the source. The calls are words filed in the database; no cut-off is given here.", "data": [{"smiles": "C=C(CC(=O)O)C(=O)O", "note": "[ITACONATE]", "values": [{"measurement": "Activity", "setting": "[1]", "result": "Active"}, {"measurement": "Kd", "setting": "[2]", "result": 155, "unit": "µM"}]}]}
